Results as given in US5496835A, “Heterocyclic compounds having angiotensin II antagonistic activity and use thereof” (Takeda Chemical Industries, Ltd., priority 1992, dated 1996).

Tests used:
AII receptor = target: T1, AII receptor (Bos taurus, UniProt P25104); assay: Inhibition of binding of 125I-angiotensin II to AII receptor membrane fraction; details: bovine adrenal cortex membrane fraction, 125I-AII, read-out: Binding-inhibitory action (rate) %; for inhibition at 1 µM: compound 10^-6 M; for inhibition at 0.1 µM: compound 10^-7 M
T1 construct: An AII receptor membrane fraction was prepared from bovine adrenal cortex; from tissue; host or cells: bovine adrenal cortex, membrane fraction
T1 sequence (P25104 1-359): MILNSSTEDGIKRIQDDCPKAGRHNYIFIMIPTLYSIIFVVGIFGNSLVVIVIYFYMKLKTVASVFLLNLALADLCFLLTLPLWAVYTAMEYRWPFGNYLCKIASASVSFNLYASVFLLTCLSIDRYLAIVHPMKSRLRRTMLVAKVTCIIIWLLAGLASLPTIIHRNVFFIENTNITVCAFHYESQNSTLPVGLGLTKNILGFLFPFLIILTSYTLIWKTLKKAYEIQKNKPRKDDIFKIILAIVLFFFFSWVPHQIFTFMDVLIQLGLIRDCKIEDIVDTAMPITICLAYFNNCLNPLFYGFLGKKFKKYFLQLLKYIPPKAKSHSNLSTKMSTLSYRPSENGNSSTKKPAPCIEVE
Experimental: An experiment of inhibition on the binding of angiotensin II (AII) to AII receptor was conducted by modifying the method of Douglas et al. [Endocrinology, 102, 685-696 (1978)]. An AII receptor membrane fraction was prepared from bovine adrenal cortex.
The compound of the present invention (10^-6 M or 10^-7 M) and ^125 I-angiotensin II (^125 I-AII) (2.44kBq/50 μl) were added to the receptor membrane fraction, and the mixture was incubated at room temperature for one hour. The receptor-bound and free ^125 I-AII were separated through a filter (Whatman GF/B filter), and the radioactivity of ^125 I-AII bound to the receptor was determined.

pressor action of AII = assay: Inhibitory effect on pressor action of AII in rats after oral administration; type: in vivo, Jcl:SD rats; details: 1 mg/kg p.o., percent inhibition of pressor action of AII 100 ng/kg i.v.
Experimental: Jcl:SD rats (9 week old, male) were used. On the previous day of the experiment, these animals were applied with cannulation into the femoral artery and vein under anesthesia with pentobarbital Na. These animals were fasted but allowed to access freely to drinking water until the experiment was started. Just on the day of conducting the experiment, the artery cannula was connected with a blood-pressure transducer, and the average blood pressure was recorded by means of polygraph. Before administration of the drug, the pressor action due to intravenous administration of AII (100 ng/kg) as the control was determined. The drugs were orally administered, then, at each point of the determination, AII was administered intravenously, and the pressor action was similarly determined. By comparing the pressor action before and after administration of the drug, the percent inhibition by the drug was evaluated.

inhibition at 1 µM (AII receptor) [%]	inhibition at 0.1 µM (AII receptor) [%]	Compound	Pressor-inhibitory action (pressor action of AII)
68	30	CCCCc1n[nH]c(C(=O)O)c1Cc1ccc(-c2ccccc2-c2nc(=O)o[nH]2)cc1 [Working Example 2, 3-Butyl-4-[2'-(2,5-dihydro-5-oxo-1,2,4-oxadiazol-3-yl)biphenyl-4-yl]methylpyrazole-5-carboxylic acid]	+ (50% > +-)
17	7	CCCCc1n[nH]c(C(=O)OC)c1Cc1ccc(-c2ccccc2-c2nsc(=O)[nH]2)cc1 [compound 3]	+++ (+++ ≥ 70%)
32		CCCCc1nn(-c2ccccc2Cl)c(C(=O)O)c1Cc1ccc(-c2ccccc2-c2noc(=O)[nH]2)cc1 [compound 6]	++ (70% > ++ ≥ 50%)
37		CCCCc1nn(-c2ccccc2Cl)c(C(=O)O)c1Cc1ccc(-c2ccccc2-c2nsc(=O)[nH]2)cc1 [compound 8]	+++ (+++ ≥ 70%)
